Laboratory results from PMC4260220 (Scientific Reports, 2014).

Target: T1, PPARγ (Homo sapiens, UniProt P37231)
T1 sequence (P37231 231-505 limits assumed): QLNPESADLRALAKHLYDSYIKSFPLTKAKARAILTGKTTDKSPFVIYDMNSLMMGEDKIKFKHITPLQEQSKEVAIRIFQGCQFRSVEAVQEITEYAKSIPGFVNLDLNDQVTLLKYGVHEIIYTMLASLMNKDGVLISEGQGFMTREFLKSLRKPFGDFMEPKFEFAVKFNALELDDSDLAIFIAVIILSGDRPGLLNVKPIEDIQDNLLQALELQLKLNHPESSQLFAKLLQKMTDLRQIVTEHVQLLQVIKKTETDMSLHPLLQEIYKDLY
Assay: competitive TR-FRET binding assay

CC(C)=CCC[C@](C)(O)[C@H]1CC[C@]2(C)[C@@H]1[C@H](O)C[C@@H]1[C@@]3(C)CC[C@H](O)C(C)(C)[C@@H]3[C@@H](O)C[C@]12C [PPT, 20(S)-5α-Dammar-24-ene-3β,6α,12β,20-tetrol]
Ki: 4.2 µM
